Organism: Rattus norvegicus
Experiment: DrugMatrix - Regimen: Daily Repeat
Format: toxicity, organism-based, Sprague-Dawley
Parameters: regimen Daily Repeat, gender Male, age 6-8 weeks
Conditions: in vivo, po, route oral GAVAGE, vehicle 100 % WATER; for ABSOLUTE BASOPHIL / ABSOLUTE EOSINOPHIL / ABSOLUTE LYMPHOCYTE / ABSOLUTE MONOCYTE / ABSOLUTE SEGMENTED NEUTROPHIL / BASOPHIL / EOSINOPHIL / ERYTHROCYTE COUNT / HEMATOCRIT / HEMOGLOBIN / LEUKOCYTE COUNT / LYMPHOCYTE / MEAN CORPUSCULAR HEMOGLOBIN / MEAN CORPUSCULAR HEMOGLOBIN CONCENTRATION / MEAN CORPUSCULAR VOLUME / MONOCYTE / NEUTROPHIL / NUCLEATED RED BLOOD CELLS / PLATELET COUNT: tissue Blood; for ALANINE AMINOTRANSFERASE / ALBUMIN / ALKALINE PHOSPHATASE / ASPARTATE AMINOTRANSFERASE / BLOOD UREA NITROGEN / CARBON DIOXIDE / CHLORIDE / CHOLESTEROL / CREATINE PHOSPHOKINASE / CREATININE / GLUCOSE / LACTATE DEHYDROGENASE / LIPASE / PHOSPHORUS / POTASSIUM / SODIUM / TOTAL BILIRUBIN / TOTAL PROTEIN / URIC ACID: tissue Plasma
[1] = 0 mg/kg, 72 h, dose level Control, time 3 day
[2] = 0 mg/kg, 120 h, dose level Control, time 5 day
[3] = 11 mg/kg, 72 h, dose level Low, time 3 day

CNS(=O)(=O)Cc1ccc2[nH]cc(CCN(C)C)c2c1
ABSOLUTE BASOPHIL [1]: 0 CELLS/uL
ABSOLUTE EOSINOPHIL [1]: 86.33 CELLS/uL
ABSOLUTE LYMPHOCYTE [1]: 12090.17 CELLS/uL
ABSOLUTE MONOCYTE [1]: 166.67 CELLS/uL
ABSOLUTE SEGMENTED NEUTROPHIL [1]: 1090.17 CELLS/uL
BASOPHIL [1]: 0%
EOSINOPHIL [1]: 0.67%
ERYTHROCYTE COUNT [1]: 5.57 x10E6/uL
HEMATOCRIT [1]: 35.33%
HEMOGLOBIN [1]: 13.83 G/DL
LEUKOCYTE COUNT [1]: 13.43 x10E3/uL
LYMPHOCYTE [1]: 89.83%
MEAN CORPUSCULAR HEMOGLOBIN [1]: 24.88 pg
MEAN CORPUSCULAR HEMOGLOBIN CONCENTRATION [1]: 39.15 G/DL
MEAN CORPUSCULAR VOLUME [1]: 63.52 fL
MONOCYTE [1]: 1.17%
NEUTROPHIL [1]: 8.33%
NUCLEATED RED BLOOD CELLS [1]: 0 /100WBC
PLATELET COUNT [1]: 1181.33 x10E3/uL
ALANINE AMINOTRANSFERASE [1]: 48.33 u/L
ALBUMIN [1]: 4.1 G/DL
ALKALINE PHOSPHATASE [1]: 395 u/L
ASPARTATE AMINOTRANSFERASE [1]: 81.83 u/L
BLOOD UREA NITROGEN [1]: 15.83 mg/dL
CARBON DIOXIDE [1]: 24.17 mmol/L
CHLORIDE [1]: 103.83 MEQ/L
CHOLESTEROL [1]: 63.67 mg/dL
CREATINE PHOSPHOKINASE [1]: 372.83 u/L
CREATININE [1]: 0.18 mg/dL
GLUCOSE [1]: 173.83 mg/dL
LACTATE DEHYDROGENASE [1]: 188.33 u/L
LIPASE [1]: 9.5 u/L
PHOSPHORUS [1]: 11.95 mg/dL
POTASSIUM [1]: 5.99 MEQ/L
SODIUM [1]: 144.43 MEQ/L
TOTAL BILIRUBIN [1]: 0.15 mg/dL
TOTAL PROTEIN [1]: 5.95 G/DL
URIC ACID [1]: 1.82 mg/dL
ABSOLUTE BASOPHIL [2]: 0 CELLS/uL
ABSOLUTE EOSINOPHIL [2]: 26.67 CELLS/uL
ABSOLUTE LYMPHOCYTE [2]: 7583.83 CELLS/uL
ABSOLUTE MONOCYTE [2]: 131.33 CELLS/uL
ABSOLUTE SEGMENTED NEUTROPHIL [2]: 674.83 CELLS/uL
BASOPHIL [2]: 0%
EOSINOPHIL [2]: 0.33%
ERYTHROCYTE COUNT [2]: 5.78 x10E6/uL
HEMATOCRIT [2]: 36.48%
HEMOGLOBIN [2]: 14.03 G/DL
LEUKOCYTE COUNT [2]: 8.42 x10E3/uL
LYMPHOCYTE [2]: 89.83%
MEAN CORPUSCULAR HEMOGLOBIN [2]: 24.3 pg
MEAN CORPUSCULAR HEMOGLOBIN CONCENTRATION [2]: 38.52 G/DL
MEAN CORPUSCULAR VOLUME [2]: 63.15 fL
MONOCYTE [2]: 1.67%
NEUTROPHIL [2]: 8.17%
NUCLEATED RED BLOOD CELLS [2]: 0 /100WBC
PLATELET COUNT [2]: 1186.67 x10E3/uL
ALANINE AMINOTRANSFERASE [2]: 50.17 u/L
ALBUMIN [2]: 4.07 G/DL
ALKALINE PHOSPHATASE [2]: 367.5 u/L
ASPARTATE AMINOTRANSFERASE [2]: 81.67 u/L
BLOOD UREA NITROGEN [2]: 16.17 mg/dL
CARBON DIOXIDE [2]: 32.33 mmol/L
CHLORIDE [2]: 101.5 MEQ/L
CHOLESTEROL [2]: 65.33 mg/dL
CREATINE PHOSPHOKINASE [2]: 255.33 u/L
CREATININE [2]: 0.17 mg/dL
GLUCOSE [2]: 139.33 mg/dL
LACTATE DEHYDROGENASE [2]: 95 u/L
LIPASE [2]: 10.5 u/L
PHOSPHORUS [2]: 10.38 mg/dL
POTASSIUM [2]: 6.11 MEQ/L
SODIUM [2]: 145.55 MEQ/L
TOTAL BILIRUBIN [2]: 0.17 mg/dL
TOTAL PROTEIN [2]: 5.98 G/DL
URIC ACID [2]: 0.93 mg/dL
ABSOLUTE BASOPHIL [3]: 0 CELLS/uL
ABSOLUTE EOSINOPHIL [3]: 39 CELLS/uL
ABSOLUTE LYMPHOCYTE [3]: 10656.67 CELLS/uL
ABSOLUTE MONOCYTE [3]: 38.67 CELLS/uL
ABSOLUTE SEGMENTED NEUTROPHIL [3]: 1065.67 CELLS/uL
BASOPHIL [3]: 0%
EOSINOPHIL [3]: 0.33%
ERYTHROCYTE COUNT [3]: 5.76 x10E6/uL
HEMATOCRIT [3]: 36.33%
HEMOGLOBIN [3]: 13.93 G/DL
LEUKOCYTE COUNT [3]: 11.8 x10E3/uL
LYMPHOCYTE [3]: 90.33%
MEAN CORPUSCULAR HEMOGLOBIN [3]: 24.2 pg
MEAN CORPUSCULAR HEMOGLOBIN CONCENTRATION [3]: 38.37 G/DL
MEAN CORPUSCULAR VOLUME [3]: 63.07 fL
MONOCYTE [3]: 0.33%
NEUTROPHIL [3]: 9%
NUCLEATED RED BLOOD CELLS [3]: 0 /100WBC
PLATELET COUNT [3]: 1289 x10E3/uL
ALANINE AMINOTRANSFERASE [3]: 45 u/L
ALBUMIN [3]: 3.83 G/DL
ALKALINE PHOSPHATASE [3]: 321.33 u/L
ASPARTATE AMINOTRANSFERASE [3]: 76.67 u/L
BLOOD UREA NITROGEN [3]: 14.67 mg/dL
CARBON DIOXIDE [3]: 26 mmol/L
CHLORIDE [3]: 103.33 MEQ/L
CHOLESTEROL [3]: 64.67 mg/dL
CREATINE PHOSPHOKINASE [3]: 413.33 u/L
CREATININE [3]: 0.14 mg/dL
GLUCOSE [3]: 155 mg/dL
LACTATE DEHYDROGENASE [3]: 166.33 u/L
LIPASE [3]: 8.67 u/L
PHOSPHORUS [3]: 12.6 mg/dL
POTASSIUM [3]: 6.24 MEQ/L
SODIUM [3]: 143.73 MEQ/L
TOTAL BILIRUBIN [3]: 0.17 mg/dL
TOTAL PROTEIN [3]: 5.63 G/DL
URIC ACID [3]: 1.4 mg/dL

From ChEMBL document CHEMBL3885881, “DrugMatrix”
